Laboratory results reported in patent US8497260B2, “2-arylbenzothiophene derivatives or pharmaceutically acceptable salts thereof, preparation method thereof, and pharmaceutical composition for the diagnosis or treatment of degenerative brain disease containing the same as active ingredient” (Industry-University Cooperation Foundation Sogang University, priority 2009, dated 2013).

Biological target: T1, β-amyloid (Aβ1-42) fibrils (Homo sapiens, UniProt P05067)
T1 construct: β-Amyloid peptide (Aβ1-42, 1 mg, Bachem); purchased Bachem
Assay: Dissociation constant (Kd) of [125I]TZDM on β-amyloid fibrils
Settings: Aβ1-42 fibrils 10 nM, 10% ethanol, room temperature 3 hours, nonspecific binding with 2 μM ThT
Protocol: β-Amyloid peptide (Aβ1-42, 1 mg, Bachem) was completely dissolved in 1 mL of DMSO, 9 mL of phosphate buffered saline (PBS) (pH 7.4) was added thereto and well mixed. The resulting mixture was incubated at 37° C. for 60 minutes to form β-amyloid fibrils, 0.5 mL was taken and transferred to each e-tube and placed into a refrigerator maintained at −80° C.
Here, the nonspecific binding was performed using 2 μM Thioflavin T (ThT).

T1 sequence (P05067 672-713 limits assumed): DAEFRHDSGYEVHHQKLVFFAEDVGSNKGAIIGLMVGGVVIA

CN(C)c1ccc(-c2nc3ccc([125I])cc3s2)cc1 [[^125I]TZDM, 2-[4-(N,N-dimethylamino)phenyl]-6-[^125I]iodobenzothiazole]
Kd: 0.13 nM
